Assay results from patent US12503485B2, “Human aminosterol ENT-03 compounds, related compositions comprising the same, and methods of using the same” (Enterin, Inc., priority 2019, dated 2025).

Target: T1, PTPN1/PTP1B (Homo sapiens, UniProt P18031)
T1 construct: The enzyme was the human truncated form (1-321), recombinantly produced in Escherichia coli; host or cells: Escherichia coli
T1 sequence (P18031 1-321): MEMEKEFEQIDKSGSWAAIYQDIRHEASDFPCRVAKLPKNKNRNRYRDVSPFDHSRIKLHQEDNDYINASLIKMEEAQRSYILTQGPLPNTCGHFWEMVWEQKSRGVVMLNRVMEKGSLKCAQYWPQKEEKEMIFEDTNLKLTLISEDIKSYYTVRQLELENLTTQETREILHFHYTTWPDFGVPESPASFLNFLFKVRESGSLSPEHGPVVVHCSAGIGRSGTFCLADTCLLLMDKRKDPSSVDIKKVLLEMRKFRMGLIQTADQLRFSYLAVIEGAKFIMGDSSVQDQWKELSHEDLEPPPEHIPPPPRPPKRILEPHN
Test: Phosphatase profiling PTPN1/PTP1B, 10-dose IC50, fluorescence
Type: biochemical

CC(C)[C@@H](CC[C@@H](C)[C@H]1CC[C@H]2[C@@H]3[C@H](O)C[C@H]4C[C@@H](NCCCNCCCCNCCCN)CC[C@]4(C)[C@H]3CC[C@]12C)OS(=O)(=O)O (single isomer, unassigned) [ENT-02, trodusquemine]
% Activity (Conc 1.00E−04 M): −0.16%
Slope (signal/min) (Conc 1.00E−04 M): −68 signal/min
% Activity (Conc 1.11E−05 M): 0.68%
Slope (signal/min) (Conc 1.11E−05 M): 292 signal/min
% Activity (Conc 1.23E−06 M): 86.43%
Slope (signal/min) (Conc 1.23E−06 M): 37260 signal/min
% Activity (Conc 1.37E−07 M): 93.11%
Slope (signal/min) (Conc 1.37E−07 M): 40137 signal/min
% Activity (Conc 1.52E−08 M): 102.11%
Slope (signal/min) (Conc 1.52E−08 M): 44021 signal/min
% Activity (Conc 3.33E−05 M): −1.02%
Slope (signal/min) (Conc 3.33E−05 M): −440 signal/min
% Activity (Conc 3.70E−06 M): 38.12%
Slope (signal/min) (Conc 3.70E−06 M): 16431 signal/min
% Activity (Conc 4.12E−07 M): 92.69%
Slope (signal/min) (Conc 4.12E−07 M): 39959 signal/min
% Activity (Conc 4.57E−08 M): 99.09%
Slope (signal/min) (Conc 4.57E−08 M): 42717 signal/min
% Activity (Conc 5.08E−09 M): 100.94%
Slope (signal/min) (Conc 5.08E−09 M): 43513 signal/min
HILLSLOPE (IC50 curve fit): −2.19
